# Assay results: US20260007681A1, “INDOLE DERIVATIVES AS ESTROGEN RECEPTOR DEGRADERS” (REGENTS OF THE UNIVERSITY OF MICHIGAN, priority 2022, published 2026)
# Biological target: ER (Homo sapiens (Human), UniProt P03372)
# Assay: Western blot analysis (Compounds B1-B278)
# Assay type: cell-based
# Settings: ER degradation by traditional Western blot; DC50 classes
# Protocol: Western Blot Analysis. The cells that are treated with the compounds are lysed in Radioimmunoprecipitation Assay Protein Lysis and Extraction Buffer (e.g., 25 mmol/L Tris.HCl, pH 7.6, 150 mmol/L NaCl, 1% Nonidet P-40, 1% sodium deoxycholate, and 0.1% sodium dodecyl sulfate) containing proteinase inhibitor cocktail. Equal amounts of total protein are electrophoresed through 10% SDS-polyacrylamide gels after determination of protein concentration by BCA assay. The separated protein bands are transferred onto PVDF membranes and blotted against different antibodies. The blots are scanned, and the band intensities are quantified (e.g., by using GelQuant.NET software provided by biochemlabsolutions.com). The relative mean intensity of target proteins is expressed after normalization to the intensity of glyceraldehyde-3-phosphate dehydrogenase bands.
# Western Blot Analysis. Western blot analysis was performed essentially as described previously. The cells treated with indicated compounds were lysed in Radioimmunoprecipitation Assay Protein Lysis and Extraction Buffer (25 mmol/L Tris.HCl, pH 7.6, 150 mmol/L NaCl, 1% Nonidet P-40, 1% sodium deoxycholate, and 0.1% sodium dodecyl sulfate) containing proteinase inhibitor cocktail (Roche Diagnostics, Mannheim, Germany). Equal amounts of total protein were electrophoresed through 10% SDS-polyacrylamide gels after determination of protein concentration by BCA assay (Fisher Scientific, Pittsburgh, PA). The separated protein bands were transferred onto PVDF membranes (GE Healthcare Life Sciences, Marlborough, MA) and blotted against different antibodies, as indicated. The blots were scanned, and the band intensities were quantified using GelQuant.NET software provided by biochemlabsolutions.com. The relative mean intensity of target proteins was expressed after normalization to the intensity of glyceraldehyde-3-phosphate dehydrogenase bands.
# ER, sequence (P03372 whole entry): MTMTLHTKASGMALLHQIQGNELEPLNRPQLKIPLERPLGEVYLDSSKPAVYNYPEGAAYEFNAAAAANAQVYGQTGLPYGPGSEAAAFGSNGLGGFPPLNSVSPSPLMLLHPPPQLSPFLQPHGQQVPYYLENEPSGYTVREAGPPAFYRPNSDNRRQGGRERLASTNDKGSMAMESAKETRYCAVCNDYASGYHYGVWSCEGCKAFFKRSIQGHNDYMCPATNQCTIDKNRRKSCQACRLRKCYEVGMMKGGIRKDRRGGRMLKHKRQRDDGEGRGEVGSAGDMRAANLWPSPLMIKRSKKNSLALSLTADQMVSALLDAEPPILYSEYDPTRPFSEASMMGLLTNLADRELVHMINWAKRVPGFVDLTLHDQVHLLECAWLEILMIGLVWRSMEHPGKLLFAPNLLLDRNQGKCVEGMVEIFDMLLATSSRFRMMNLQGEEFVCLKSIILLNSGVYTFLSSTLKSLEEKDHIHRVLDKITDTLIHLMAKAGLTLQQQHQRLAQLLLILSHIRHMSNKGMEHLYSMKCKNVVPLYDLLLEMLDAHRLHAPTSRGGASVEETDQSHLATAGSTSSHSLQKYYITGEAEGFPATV
row,SMILES,Traditional Western Degradation Potency
1,"C[C@@H]1Cc2c([nH]c3ccccc23)[C@@H](c2c(F)cc(N3CCCC4(CCN(C(=O)CN5Cc6cc7c(cc6C5)C(=O)N(C5CCC(=O)NC5=O)C7=O)C4)C3)cc2F)N1CC(F)F (stereo partly drawn) [Compound B21, 6-(2-(7-(4-((1R,3R)-2-(2,2-difluoroethyl)-3-methyl-2,3,4,9-tetrahydro-1H-pyrido[3,4-b]indol-1-yl)-3,5-difluorophenyl)-2,7-diazaspiro[4.5]decan-2-yl)-2-oxoethyl)-2-(2,6-dioxopiperidin-3-yl)-6,7-dihydropyrrolo[3,4-f]isoindole-1,3(2H,5H)-dione]",C (“C”: >100 nM)
2,"C[C@@H]1Cc2c([nH]c3ccccc23)[C@@H](c2c(F)cc(N3CCC4(CCN(C(=O)CN5Cc6cc7c(cc6C5)C(=O)N(C5CCC(=O)NC5=O)C7=O)C4)C3)cc2F)N1CC(F)F (stereo partly drawn) [Compound B22, 6-(2-(7-(4-((1R,3R)-2-(2,2-difluoroethyl)-3-methyl-2,3,4,9-tetrahydro-1H-pyrido[3,4-b]indol-1-yl)-3,5-difluorophenyl)-2,7-diazaspiro[4.4]nonan-2-yl)-2-oxoethyl)-2-(2,6-dioxopiperidin-3-yl)-6,7-dihydropyrrolo[3,4-f]isoindole-1,3(2H,5H)-dione]",B (“B”: 10-100 nM)
3,"C[C@H]1Cc2c([nH]c3ccccc23)[C@H](c2c(F)cc(N3CC4(CCCN(C(=O)CN5Cc6cc7c(cc6C5)C(=O)N(C5CCC(=O)NC5=O)C7=O)C4)C3)cc2F)N1CC(F)F (stereo partly drawn) [Compound B23, 6-(2-(2-(4-((1S,3S)-2-(2,2-difluoroethyl)-3-methyl-2,3,4,9-tetrahydro-1H-pyrido[3,4-b]indol-1-yl)-3,5-difluorophenyl)-2,6-diazaspiro[3.5]nonan-6-yl)-2-oxoethyl)-2-(2,6-dioxopiperidin-3-yl)-6,7-dihydropyrrolo[3,4-f]isoindole-1,3(2H,5H)-dione]",B (“B”: 10-100 nM)
4,"C[C@@H]1Cc2c([nH]c3ccccc23)[C@@H](c2c(F)cc(N3CCCC4(CN(C(=O)CN5Cc6cc7c(cc6C5)C(=O)N(C5CCC(=O)NC5=O)C7=O)C4)C3)cc2F)N1CC(F)F (stereo partly drawn) [Compound B24, 6-(2-(6-(4-((1R,3R)-2-(2,2-difluoroethyl)-3-methyl-2,3,4,9-tetrahydro-1H-pyrido[3,4-b]indol-1-yl)-3,5-difluorophenyl)-2,6-diazaspiro[3.5]nonan-2-yl)-2-oxoethyl)-2-(2,6-dioxopiperidin-3-yl)-6,7-dihydropyrrolo[3,4-f]isoindole-1,3(2H,5H)-dione]",B (“B”: 10-100 nM)
5,"C[C@@H]1Cc2c([nH]c3ccccc23)[C@@H](c2c(F)cc(N3CC4(CN(C(=O)CN5Cc6cc7c(cc6C5)C(=O)N(C5CCC(=O)NC5=O)C7=O)C4)C3)cc2F)N1CC(F)F (stereo partly drawn) [Compound B25, 6-(2-(6-(4-((1R,3R)-2-(2,2-difluoroethyl)-3-methyl-2,3,4,9-tetrahydro-1H-pyrido[3,4-b]indol-1-yl)-3,5-difluorophenyl)-2,6-diazaspiro[3.3]heptan-2-yl)-2-oxoethyl)-2-(2,6-dioxopiperidin-3-yl)-6,7-dihydropyrrolo[3,4-f]isoindole-1,3(2H,5H)-dione]",A (“A”: <10 nM)
6,"C[C@@H]1Cc2c([nH]c3ccccc23)[C@@H](c2c(F)cc(N3CCC4(CN(C(=O)CN5Cc6cc7c(cc6C5)C(=O)N(C5CCC(=O)NC5=O)C7=O)C4)C3)cc2F)N1CC(F)F (stereo partly drawn) [Compound B26, 6-(2-(6-(4-((1R,3R)-2-(2,2-difluoroethyl)-3-methyl-2,3,4,9-tetrahydro-1H-pyrido[3,4-b]indol-1-yl)-3,5-difluorophenyl)-2,6-diazaspiro[3.4]octan-2-yl)-2-oxoethyl)-2-(2,6-dioxopiperidin-3-yl)-6,7-dihydropyrrolo[3,4-f]isoindole-1,3(2H,5H)-dione]",A (“A”: <10 nM)
7,"C[C@H]1Cc2c([nH]c3ccccc23)[C@H](c2c(F)cc(N3CC4(CCN(C(=O)CN5Cc6cc7c(cc6C5)C(=O)N(C5CCC(=O)NC5=O)C7=O)CC4)C3)cc2F)N1CC(F)F (stereo partly drawn) [Compound B27, 6-(2-(2-(4-((1S,3S)-2-(2,2-difluoroethyl)-3-methyl-2,3,4,9-tetrahydro-1H-pyrido[3,4-b]indol-1-yl)-3,5-difluorophenyl)-2,7-diazaspiro[3.5]nonan-7-yl)-2-oxoethyl)-2-(2,6-dioxopiperidin-3-yl)-6,7-dihydropyrrolo[3,4-f]isoindole-1,3(2H,5H)-dione]",A (“A”: <10 nM)
8,"C[C@H]1Cc2c([nH]c3ccccc23)[C@H](c2c(F)cc(N3CC4(CCN(C(=O)CN5Cc6cc7c(cc6C5)C(=O)N(C5CCC(=O)NC5=O)C7)CC4)C3)cc2F)N1CC(F)F (stereo partly drawn) [Compound B28, 3-(6-(2-(2-(4-((1S,3S)-2-(2,2-difluoroethyl)-3-methyl-2,3,4,9-tetrahydro-1H-pyrido[3,4-b]indol-1-yl)-3,5-difluorophenyl)-2,7-diazaspiro[3.5]nonan-7-yl)-2-oxoethyl)-1-oxo-3,5,6,7-tetrahydropyrrolo[3,4-f]isoindol-2(1H)-yl)piperidine-2,6-dione]",A (“A”: <10 nM)
9,"C[C@@H]1Cc2c([nH]c3ccccc23)[C@@H](c2c(F)cc(N3CCC(N4CCC(CN5Cc6cc7c(cc6C5)C(=O)N(C5CCC(=O)NC5=O)C7)CC4)CC3)cc2F)N1CC(F)F (stereo partly drawn) [Compound B29, 3-(6-((1′-(4-((1R,3R)-2-(2,2-difluoroethyl)-3-methyl-2,3,4,9-tetrahydro-1H-pyrido[3,4-b]indol-1-yl)-3,5-difluorophenyl)-[1,4′-bipiperidin]-4-yl)methyl)-1-oxo-3,5,6,7-tetrahydropyrrolo[3,4-f]isoindol-2(1H)-yl)piperidine-2,6-dione]",B (“B”: 10-100 nM)
10,"C[C@@H]1Cc2c([nH]c3ccccc23)[C@@H](c2c(F)cc(N3CCC(N4CCC(N5Cc6cc7c(cc6C5)C(=O)N(C5CCC(=O)NC5=O)C7=O)CC4)CC3)cc2F)N1CC(F)F (stereo partly drawn) [Compound B30, 6-(1′-(4-((1R,3R)-2-(2,2-difluoroethyl)-3-methyl-2,3,4,9-tetrahydro-1H-pyrido[3,4-b]indol-1-yl)-3,5-difluorophenyl)-[1,4′-bipiperidin]-4-yl)-2-(2,6-dioxopiperidin-3-yl)-6,7-dihydropyrrolo[3,4-f]isoindole-1,3(2H,5H)-dione]",C (“C”: >100 nM)
11,"C[C@@H]1Cc2c([nH]c3ccccc23)[C@@H](c2c(F)cc(N3CCC(N4Cc5cc6c(cc5C4)C(=O)N(C4CCC(=O)NC4=O)C6=O)CC3)cc2F)N1CC(F)F (stereo partly drawn) [Compound B31, 6-(1-(4-((1R,3R)-2-(2,2-difluoroethyl)-3-methyl-2,3,4,9-tetrahydro-1H-pyrido[3,4-b]indol-1-yl)-3,5-difluorophenyl)piperidin-4-yl)-2-(2,6-dioxopiperidin-3-yl)-6,7-dihydropyrrolo[3,4-f]isoindole-1,3(2H,5H)-dione]",C (“C”: >100 nM)
12,"C[C@@H]1Cc2c([nH]c3ccccc23)[C@@H](c2c(F)cc(N3CCC(CN4Cc5cc6c(cc5C4)C(=O)N(C4CCC(=O)NC4=O)C6=O)CC3)cc2F)N1CC(F)F (stereo partly drawn) [Compound B32, 6-((1-(4-((1R,3R)-2-(2,2-difluoroethyl)-3-methyl-2,3,4,9-tetrahydro-1H-pyrido[3,4-b]indol-1-yl)-3,5-difluorophenyl)piperidin-4-yl)methyl)-2-(2,6-dioxopiperidin-3-yl)-6,7-dihydropyrrolo[3,4-f]isoindole-1,3(2H,5H)-dione]",C (“C”: >100 nM)
13,"C[C@@H]1Cc2c([nH]c3ccccc23)[C@@H](c2c(F)cc(N3CCC(N4CCC(CC(=O)N5Cc6cc7c(cc6C5)C(=O)N(C5CCC(=O)NC5=O)C7=O)CC4)CC3)cc2F)N1CC(F)F (stereo partly drawn) [Compound B33, 6-(2-(1′-(4-((1R,3R)-2-(2,2-difluoroethyl)-3-methyl-2,3,4,9-tetrahydro-1H-pyrido[3,4-b]indol-1-yl)-3,5-difluorophenyl)-[1,4′-bipiperidin]-4-yl)acetyl)-2-(2,6-dioxopiperidin-3-yl)-6,7-dihydropyrrolo[3,4-f]isoindole-1,3(2H,5H)-dione]",A (“A”: <10 nM)
14,"C[C@@H]1Cc2c([nH]c3ccccc23)[C@@H](c2c(F)cc(N3CCC(N4CCC(CC(=O)N5Cc6cc7c(cc6C5)C(=O)N(C5CCC(=O)NC5=O)C7)CC4)CC3)cc2F)N1CC(F)F (stereo partly drawn) [Compound B34, 3-(6-(2-(1′-(4-((1R,3R)-2-(2,2-difluoroethyl)-3-methyl-2,3,4,9-tetrahydro-1H-pyrido[3,4-b]indol-1-yl)-3,5-difluorophenyl)-[1,4′-bipiperidin]-4-yl)acetyl)-1-oxo-3,5,6,7-tetrahydropyrrolo[3,4-f]isoindol-2(1H)-yl)piperidine-2,6-dione]",A (“A”: <10 nM)
15,"C[C@@H]1Cc2c([nH]c3ccccc23)[C@@H](c2c(F)cc(N3CCC(N4CCN(CC(=O)N5Cc6cc7c(cc6C5)C(=O)N(C5CCC(=O)NC5=O)C7=O)CC4)CC3)cc2F)N1CC(F)F (stereo partly drawn) [Compound B35, 6-(2-(4-(1-(4-((1R,3R)-2-(2,2-difluoroethyl)-3-methyl-2,3,4,9-tetrahydro-1H-pyrido[3,4-b]indol-1-yl)-3,5-difluorophenyl)piperidin-4-yl)piperazin-1-yl)acetyl)-2-(2,6-dioxopiperidin-3-yl)-6,7-dihydropyrrolo[3,4-f]isoindole-1,3(2H,5H)-dione]",A (“A”: <10 nM)
